Source: patent US20230090293A1, “ANTIBIOTICS” (ASTON UNIVERSITY, priority 2020, published 2023)

Tests used:
[1] = test system: A2780cisR (cisplatin resistant ovarian cancer cell line); experiment: In vitro chemosensitivity (MTT) assay, A2780cisR; format: cell-based, human; conditions: 24 h exposure, 72 h recovery, mean ± SD
Method: (§1) In vitro chemosensitivity tests were performed against HCT116 (colorectal cancer cell line), A2780 and A2780cisR (cisplatin sensitive and cisplatin resistant ovarian cancer cell lines, respectively). Cancer cell lines were routinely maintained as monolayer cultures in RPMI medium supplemented with 10% foetal calf serum, penicillin (100 I.U./ml) and streptomycin (100 μg/ml), sodium pyruvate (1 mM) and L-glutamine (2 mM). For chemosensitivity studies, cells were incubated in 96-well plates at a concentration of 7.5×10^3 cells per well and the plates were incubated for 24 hours at 37° C. and a 5% CO2 humidified atmosphere prior to drug exposure.
(§2) Complexes were dissolved in dimethylsulfoxide (DMSO) to provide stock solutions which were further diluted with media to provide a range of final concentrations. Drug-media solutions were added to cells (the final concentration of DMSO was less than 0.5% (v/v) in all cases) and incubated for 24 hours at 37° C. and 5% CO2 humidified atmosphere. […] A Thermo Scientific Multiskan EX microplate photometer was used to measure the absorbance in each well at 570 nm. Cell survival was determined as the absorbance of treated cells divided by the absorbance of controls and expressed as a percentage. The IC50 values were determined from plots of % survival against drug concentration. […]

[2] = test system: HCT116 (colorectal cancer cell line); experiment: In vitro chemosensitivity (MTT) assay, HCT116; format: cell-based, human; conditions: 24 h exposure, 72 h recovery, mean ± SD
Method: as §1, §2

N.N.[Cl][Pt][Cl] [cisplatin]
IC50 [1]: 11.9 ± 2.2 µM | IC50 [2]: 59.8 ± 7.5 µM
